Data on two compounds can be found in PMC12615753, “Glutathione as a taste modulator: molecular mechanisms of interaction with umami and sweet taste receptors” (Food Chemistry: Molecular Sciences, 2025).

The target of this experiment is T1, hTAS1R1 L223A/rTAS1R3 (Homo sapiens, UniProt Q7RTX1, L223A).
T1 construct: UniProtKB number Q7RTX1–1); expressed in transfected cells; host or cells: HEK293T/17 (ATCC CRL-11268)
T1 sequence (Q7RTX1 21-841 L223A): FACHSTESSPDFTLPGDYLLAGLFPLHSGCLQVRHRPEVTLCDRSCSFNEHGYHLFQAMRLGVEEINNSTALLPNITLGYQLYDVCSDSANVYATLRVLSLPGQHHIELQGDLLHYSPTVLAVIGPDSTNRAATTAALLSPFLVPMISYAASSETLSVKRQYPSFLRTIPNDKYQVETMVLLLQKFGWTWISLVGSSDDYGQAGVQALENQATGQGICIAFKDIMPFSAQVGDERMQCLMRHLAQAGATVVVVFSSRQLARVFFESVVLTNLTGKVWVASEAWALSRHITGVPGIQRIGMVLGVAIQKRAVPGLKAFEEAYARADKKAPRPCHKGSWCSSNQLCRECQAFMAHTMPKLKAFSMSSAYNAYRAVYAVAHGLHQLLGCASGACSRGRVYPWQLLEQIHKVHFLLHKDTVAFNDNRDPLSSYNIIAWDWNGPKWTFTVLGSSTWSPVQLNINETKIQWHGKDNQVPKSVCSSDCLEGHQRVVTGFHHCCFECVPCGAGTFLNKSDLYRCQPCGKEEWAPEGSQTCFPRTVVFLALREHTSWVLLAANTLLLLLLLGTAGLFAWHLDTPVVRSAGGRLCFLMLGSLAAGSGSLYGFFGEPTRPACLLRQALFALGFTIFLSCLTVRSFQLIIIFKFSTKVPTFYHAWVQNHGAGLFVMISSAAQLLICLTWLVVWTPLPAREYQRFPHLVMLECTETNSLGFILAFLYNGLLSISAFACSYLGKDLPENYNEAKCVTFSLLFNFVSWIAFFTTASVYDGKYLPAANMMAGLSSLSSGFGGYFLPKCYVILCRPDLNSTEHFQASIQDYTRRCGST
T1 sequence (Q923K1 21-858 partner): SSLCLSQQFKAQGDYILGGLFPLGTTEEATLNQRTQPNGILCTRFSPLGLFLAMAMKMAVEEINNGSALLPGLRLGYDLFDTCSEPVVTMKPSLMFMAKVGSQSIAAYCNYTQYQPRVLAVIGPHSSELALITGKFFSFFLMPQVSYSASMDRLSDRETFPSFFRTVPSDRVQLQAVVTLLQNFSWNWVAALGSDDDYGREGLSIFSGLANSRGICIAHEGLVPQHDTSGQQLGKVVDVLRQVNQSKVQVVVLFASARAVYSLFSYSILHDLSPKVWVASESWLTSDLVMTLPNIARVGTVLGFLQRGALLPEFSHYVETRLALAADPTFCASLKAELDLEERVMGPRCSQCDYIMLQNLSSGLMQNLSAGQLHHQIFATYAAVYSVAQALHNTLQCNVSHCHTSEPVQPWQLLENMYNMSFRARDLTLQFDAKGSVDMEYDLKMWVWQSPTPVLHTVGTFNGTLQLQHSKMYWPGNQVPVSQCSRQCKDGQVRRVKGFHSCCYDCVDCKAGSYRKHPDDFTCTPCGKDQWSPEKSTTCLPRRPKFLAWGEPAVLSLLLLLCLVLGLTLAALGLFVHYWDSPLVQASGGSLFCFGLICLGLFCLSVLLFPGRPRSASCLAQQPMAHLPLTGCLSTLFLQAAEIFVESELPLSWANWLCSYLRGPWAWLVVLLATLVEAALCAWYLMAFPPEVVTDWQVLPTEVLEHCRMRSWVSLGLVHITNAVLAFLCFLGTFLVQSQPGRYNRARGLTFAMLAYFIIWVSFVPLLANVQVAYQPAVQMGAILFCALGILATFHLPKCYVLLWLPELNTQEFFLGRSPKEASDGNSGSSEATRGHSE
Briefly: Calcium assay, hTAS1R1 mutant co-expressed with rTAS1R3. Format: cell-based, rat.

Consider `N[C@@H](CCC(=O)N[C@@H](CS)C(=O)NCC(=O)O)C(=O)O` [GSH, γ-L-glutamyl-L-cysteinyl-glycine], for which the EC50 came to 2320 ± 308 µM. Under “L223A”, the “effect of the added compound (1 mM) on the response to L-Glu” value is given as “synergy was observed” and the “response to the agonist alone, vs WT” value is “significantly increased the initial amplitude”. Under “L223A, GSH”, the “Max ∆F/F0” value worked out at 1.71 ± 0.09 and the “R1 = mutant EC50/WT EC50” value amounted to 0.9.

Take `N[C@@H](CCC(=O)O)C(=O)O` [L-Glu, L-glutamic acid, reference compound]: the “response to the agonist alone, vs WT” value (L223A) is “increased the amplitude”.

The EC50 is the concentration needed to bring the measured effect to its halfway point.
